Measurements as given in ChEMBL document CHEMBL4680151, “Proton pump inhibitors selectively suppress MLL rearranged leukemia cells via disrupting MLL1-WDR5 protein-protein interaction” (Eur J Med Chem, 2020).
The source made the active and inactive calls. The rule behind the calls is not given here.

Legend:
[1] = target: Histone-lysine N-methyltransferase 2A/WDR5 (Homo sapiens, UniProt P61964); test: Inhibition of MLL1-WDR5 interaction […] assessed as reduction in MLL1 binding to WDR5 WIN site by 5-FAM probe based fluorescence polarization assay
[2] = target: T1, Histone-lysine N-methyltransferase 2A/WDR5 (Homo sapiens) (UniProt P61964+Q03164); test: Inhibition of MLL1-WDR5 interaction in human MV4-11 cells assessed as reduction in H3K4me2 expression at 5 uM incubated for 6 days by Western blot analysis; type: cell-based; conditions: time 6.0 day
[3] = target: T1, Histone-lysine N-methyltransferase 2A/WDR5 (Homo sapiens); test: Inhibition of MLL1-WDR5 interaction in human MV4-11 cells assessed as reduction in H3K4me1 expression at 5 uM incubated for 6 days by Western blot analysis; type: cell-based; conditions: time 6.0 day
[4] = target: T1, Histone-lysine N-methyltransferase 2A/WDR5 (Homo sapiens); test: Inhibition of MLL1-WDR5 interaction in human MV4-11 cells assessed as downregulation of Hoxa9 gene expression at 5 uM incubated for 6 days by qRT-PCR analysis; type: cell-based; conditions: time 6.0 day
[5] = target: T1, Histone-lysine N-methyltransferase 2A/WDR5 (Homo sapiens); test: Inhibition of MLL1-WDR5 interaction in human MV4-11 cells assessed as downregulation of Meis1 gene expression at 5 uM incubated for 6 days by qRT-PCR analysis; type: cell-based; conditions: time 6.0 day
[6] = tested on: MV4-11; test: Antiproliferative activity against human MV4-11 cells harboring MLL1-AF4; type: functional
[7] = tested on: MOLM-13; test: Antiproliferative activity against human MOLM-13 cells harboring MLL1-AF9; type: functional
[8] = tested on: K562; test: Antiproliferative activity against human K562 cells harboring MLL1; type: functional
[9] = Cytotoxicity against human L02 cells; type: cell-based
[10] = Cytotoxicity against HUVEC cells; type: cell-based; conditions: human
[11] = tested on: MV4-11; test: Induction of apoptosis in human MV4-11 cells harboring MLL1-AF4 incubated for 72 hrs by annexin V-FITC and propidium iodide staining based assay; type: functional, cell-based; conditions: dose 5-25 µM
[12] = tested on: MV4-11; test: Induction of apoptosis in human MV4-11 cells harboring MLL1-AF4 assessed as late apoptotic cells at 5 uM incubated for 72 hrs by annexin V-FITC and propidium iodide staining based assay (reference value: 1.85 %); type: functional
[13] = target: T1, Histone-lysine N-methyltransferase 2A/WDR5 (Homo sapiens); test: Inhibition of MLL1-WDR5 interaction in human MV4-11 cells assessed as reduction in H3K4me1 expression incubated for 6 days by Western blot analysis; type: cell-based; conditions: dose 0.1-20 µM, time 6.0 day
[14] = target: T1, Histone-lysine N-methyltransferase 2A/WDR5 (Homo sapiens); test: Inhibition of MLL1-WDR5 interaction in human MV4-11 cells assessed as downregulation of Meis1 gene expression at 10 uM incubated for 6 days by qRT-PCR analysis relative to control; type: cell-based; conditions: time 6.0 day
[15] = tested on: MV4-11; test: Induction of apoptosis in human MV4-11 cells harboring MLL1-AF4 assessed as viable cells at 10 uM incubated for 72 hrs by annexin V-FITC and propidium iodide staining based assay (reference value: 93.75 %); type: functional; conditions: read-out: Activity
[16] = tested on: MV4-11; test: Induction of apoptosis in human MV4-11 cells harboring MLL1-AF4 assessed as viable cells at 25 uM incubated for 72 hrs by annexin V-FITC and propidium iodide staining based assay (reference value: 93.75 %); type: functional; conditions: read-out: Activity
[17] = target: T1, Histone-lysine N-methyltransferase 2A/WDR5 (Homo sapiens); test: Inhibition of MLL1-WDR5 interaction in human MV4-11 cells assessed as downregulation of Hoxa9 gene expression incubated for 6 days by qRT-PCR analysis; type: cell-based; conditions: dose 1-20 µM, time 6.0 day
[18] = tested on: MV4-11; test: Induction of apoptosis in human MV4-11 cells harboring MLL1-AF4 assessed as necrotic cells at 5 uM incubated for 72 hrs by annexin V-FITC and propidium iodide staining based assay (reference value: 0.05 %); type: functional
[19] = tested on: MV4-11; test: Induction of apoptosis in human MV4-11 cells harboring MLL1-AF4 assessed as early apoptotic cells at 5 uM incubated for 72 hrs by annexin V-FITC and propidium iodide staining based assay (reference value: 4.35 %); type: functional
[20] = tested on: MV4-11; test: Induction of apoptosis in human MV4-11 cells harboring MLL1-AF4 assessed as necrotic cells at 25 uM incubated for 72 hrs by annexin V-FITC and propidium iodide staining based assay (reference value: 0.05 %); type: functional
[21] = target: T1, Histone-lysine N-methyltransferase 2A/WDR5 (Homo sapiens); test: Inhibition of MLL1-WDR5 interaction in human MV4-11 cells assessed as downregulation of Meis1 gene expression incubated for 6 days by qRT-PCR analysis; type: cell-based; conditions: dose 1-20 µM, time 6.0 day
[22] = tested on: MV4-11; test: Induction of apoptosis in human MV4-11 cells harboring MLL1-AF4 assessed as early apoptotic cells at 25 uM incubated for 72 hrs by annexin V-FITC and propidium iodide staining based assay (reference value: 4.35 %); type: functional
[23] = target: T1, Histone-lysine N-methyltransferase 2A/WDR5 (Homo sapiens); test: Inhibition of MLL1-WDR5 interaction in human MV4-11 cells assessed as downregulation of Hoxa9 gene expression at 10 uM incubated for 6 days by qRT-PCR analysis relative to control; type: cell-based; conditions: time 6.0 day
[24] = tested on: MV4-11; test: Induction of apoptosis in human MV4-11 cells harboring MLL1-AF4 assessed as viable cells at 5 uM incubated for 72 hrs by annexin V-FITC and propidium iodide staining based assay (reference value: 93.75 %); type: functional; conditions: read-out: Activity
[25] = tested on: MV4-11; test: Induction of apoptosis in human MV4-11 cells harboring MLL1-AF4 assessed as early apoptotic cells at 10 uM incubated for 72 hrs by annexin V-FITC and propidium iodide staining based assay (reference value: 4.35 %); type: functional
[26] = tested on: MV4-11; test: Induction of apoptosis in human MV4-11 cells harboring MLL1-AF4 assessed as late apoptotic cells at 25 uM incubated for 72 hrs by annexin V-FITC and propidium iodide staining based assay (reference value: 1.85 %); type: functional
[27] = tested on: MV4-11; test: Induction of apoptosis in human MV4-11 cells harboring MLL1-AF4 assessed as late apoptotic cells at 10 uM incubated for 72 hrs by annexin V-FITC and propidium iodide staining based assay (reference value: 1.85 %); type: functional
[28] = target: T1, Histone-lysine N-methyltransferase 2A/WDR5 (Homo sapiens); test: Inhibition of MLL1-WDR5 interaction in human MV4-11 cells assessed as reduction in H3K4me2 expression incubated for 6 days by Western blot analysis; type: cell-based; conditions: dose 0.1-20 µM, time 6.0 day
[29] = tested on: MV4-11; test: Induction of apoptosis in human MV4-11 cells harboring MLL1-AF4 assessed as necrotic cells at 10 uM incubated for 72 hrs by annexin V-FITC and propidium iodide staining based assay (reference value: 0.05 %); type: functional

Compound | IC50 [1] [µM] | GI50 [6] [µM] | GI50 [7] [µM] | GI50 [8] [µM] | GI50 [9] [µM] | GI50 [10] [µM] | other results
Cc1ccccc1C[S+]([O-])c1nc2ccccc2[nH]1 (stereo unspecified) | > 100 | – | – | – | – | – | –
COc1c(C)cnc(C[S+]([O-])c2nc3ccccc3s2)c1C (stereo unspecified) | > 100 | – | – | – | – | – | –
Cc1cccnc1C[S+]([O-])c1nc2ccccc2[nH]1 (stereo unspecified) | > 100 | – | – | – | – | – | –
COc1c(C)cnc(C[S+]([O-])c2nc3ccccc3o2)c1C (stereo unspecified) | > 100 | – | – | – | – | – | –
Cc1c(F)c(N)cc(C(=O)Nc2cc(-c3ccc(N)cc3)ccc2N2CCN(C)CC2)c1Cl | – | – | – | – | – | – | inhibition [2]: Active; inhibition [3]: Active; inhibition [4]: Active; inhibition [5]: Active
Cc1c(OCC(F)(F)F)ccnc1C[S@@+]([O-])c1nc2ccccc2[nH]1 [DEXLANSOPRAZOLE] | 5.7 | 25.1 | 27.2 | > 100 | > 100 | > 100 | –
Cc1c(OCC(F)(F)F)ccnc1C[S+]([O-])c1nc2ccccc2[nH]1 (stereo unspecified) [LANSOPRAZOLE] | 5.9 | 21.1 | 30.1 | > 100 | > 100 | > 100 | –
COc1ccc2[nH]c([S+]([O-])Cc3ncc(C)c(OC)c3C)nc2c1 (stereo unspecified) [OMEPRAZOLE] | 1.7 | 37.3 | 34.1 | > 100 | > 100 | > 100 | –
COCCCOc1ccnc(C[S+]([O-])c2nc3ccccc3[nH]2)c1C (stereo unspecified) [RABEPRAZOLE] | 0.49 | 14.1 | 17.5 | > 100 | > 100 | > 100 | Activity [11]: Dose-dependent effect; Activity [12]: 5.65%; inhibition [13]: Dose-dependent effect; inhibition [14]: 50%; viability at 10 µM [15]: 86.2%; viability at 25 µM [16]: 76.3%; inhibition [17]: Dose-dependent effect; Activity [18]: 0.2%; Activity [19]: 7.75%; Activity [20]: 0.8%; inhibition [21]: Dose-dependent effect; Activity [22]: 6.4%; inhibition [23]: 50%; viability at 5 µM [24]: 86.4%; Activity [25]: 4.75%; Activity [26]: 16.5%; Activity [27]: 8.7%; inhibition [28]: Dose-dependent effect; Activity [29]: 0.3%

Now from value to compound, other results behind:

IC50 [1] [µM] | Compound | GI50 [6] [µM] | GI50 [7] [µM] | GI50 [8] [µM] | GI50 [9] [µM] | GI50 [10] [µM] | other results
1.1 | COc1c(C)cnc(C[S+]([O-])c2nc3ccccc3[nH]2)c1C (stereo unspecified) | – | – | – | – | – | –
1.7 | COCCCOc1ccnc(C[S+]([O-])c2nc3cc(OC(F)F)ccc3[nH]2)c1C (stereo unspecified) | – | – | – | – | – | –
> 100 | COCCCOc1ccnc(CS(=O)(=O)c2nc3cc(OC(F)F)ccc3[nH]2)c1 | – | – | – | – | – | –
> 100 | COc1c(C)cnc(CSc2nc3ccccc3[nH]2)c1C | – | – | – | – | – | –
1.8 | COc1ccc2nc([S@@+]([O-])Cc3ncc(C)c(OC)c3C)[nH]c2c1 [ESOMEPRAZOLE] | 47.6 | 32 | > 100 | > 100 | > 100 | –
